The data set concerns CCRIS mutagenicity, Ames/micronucleus/aberration tests. Description: CCRIS mutagenicity studies.
Where [1] appears, read: Test System: AMES SALMONELLA TYPHIMURIUM, Strain/Indicator: TA98, Metabolic Activation: NONE, Method: STANDARD PLATE.
Where [2] appears, read: Test System: AMES SALMONELLA TYPHIMURIUM, Strain/Indicator: TA100, Metabolic Activation: NONE, Method: STANDARD PLATE.

Structures are written as SMILES. Activity calls are given as the source filed them. How the calls were made is not given here.

`BrCc1ccc(Br)cc1`: the mutagenic call is, setting by setting: (Test System: AMES SALMONELLA TYPHIMURIUM, Strain/Indicator: TA97A, Metabolic Activation: NONE, Method: STANDARD PLATE) “inactive; negative”; (Test System: AMES SALMONELLA TYPHIMURIUM, Strain/Indicator: TA97A, Metabolic Activation: RAT LIVER S-9, PHENOBARBITAL, BETA-NAPHTHOFLAVONE, 3.5%, Method: STANDARD PLATE) “inactive; negative”; under setting [1], “inactive; negative”; (Test System: AMES SALMONELLA TYPHIMURIUM, Strain/Indicator: TA98, Metabolic Activation: RAT LIVER S-9, PHENOBARBITAL, BETA-NAPHTHOFLAVONE, 3.5%, Method: STANDARD PLATE) “inactive; negative”; under setting [2], “inactive; negative”; (Test System: AMES SALMONELLA TYPHIMURIUM, Strain/Indicator: TA100, Metabolic Activation: RAT LIVER S-9, PHENOBARBITAL, BETA-NAPHTHOFLAVONE, 3.5%, Method: STANDARD PLATE) “inactive; negative”. For the same molecule, the mutagenic call was “inactive; negative” (Test System: AMES SALMONELLA TYPHIMURIUM, Strain/Indicator: TA1535, Metabolic Activation: NONE, Method: STANDARD PLATE); “inactive; negative” (Test System: AMES SALMONELLA TYPHIMURIUM, Strain/Indicator: TA1535, Metabolic Activation: RAT LIVER S-9, PHENOBARBITAL, BETA-NAPHTHOFLAVONE, 3.5%, Method: STANDARD PLATE); “inactive; negative” (Test System: ESCHERICHIA COLI, Strain/Indicator: WP2 UVR A, Metabolic Activation: NONE, Method: STANDARD PLATE); “inactive; negative” (Test System: ESCHERICHIA COLI, Strain/Indicator: WP2 UVR A, Metabolic Activation: RAT LIVER S-9, PHENOBARBITAL, BETA-NAPHTHOFLAVONE, 3.5%, Method: STANDARD PLATE).
As for `CCCCCC(=O)CC`, the mutagenic call (Test System: CHINESE HAMSTER V-79, Strain/Indicator: V-79 (HPRT)/6-THIOGUANINE, Metabolic Activation: NONE, Method: STANDARD PLATE) is “inactive; negative” and the mutagenic call (Test System: CHINESE HAMSTER V-79, Strain/Indicator: V-79 (HPRT)/6-THIOGUANINE, Metabolic Activation: RAT LIVER S-9, Method: STANDARD PLATE) is “inactive; negative”.
Regarding `[Cl][Sn]([Cl])([Cl])[Cl]`, the mutagenic call runs as follows: (Test System: AMES SALMONELLA TYPHIMURIUM, Strain/Indicator: TA98, Metabolic Activation: NONE, Method: SUSPENSION/PLATE) “inactive; negative”; (Test System: AMES SALMONELLA TYPHIMURIUM, Strain/Indicator: TA100, Metabolic Activation: NONE, Method: SUSPENSION/PLATE) “inactive; negative”.
As for `COC(=O)c1oc([N+](=O)[O-])c(-c2ccccc2)c1-c1ccccc1`, the mutagenic call was “active; positive” (Test System: AMES SALMONELLA TYPHIMURIUM, Strain/Indicator: TA98(1,8-DNP6), Metabolic Activation: NONE, Method: STANDARD PLATE); “inactive; negative” (Test System: AMES SALMONELLA TYPHIMURIUM, Strain/Indicator: TA98(NR), Metabolic Activation: NONE, Method: STANDARD PLATE); “active; positive” (Test System: AMES SALMONELLA TYPHIMURIUM, Strain/Indicator: TA98, Metabolic Activation: NONE, Method: PREINCUBATION); “active; positive” under setting [1]; “active; positive” (Test System: AMES SALMONELLA TYPHIMURIUM, Strain/Indicator: TA100(NR), Metabolic Activation: NONE, Method: STANDARD PLATE); “active; positive” (Test System: AMES SALMONELLA TYPHIMURIUM, Strain/Indicator: TA100, Metabolic Activation: NONE, Method: PREINCUBATION). Moreover, the mutagenic call was “active; positive” under setting [2] and “active; positive” (Test System: AMES SALMONELLA TYPHIMURIUM, Strain/Indicator: TA104, Metabolic Activation: NONE, Method: STANDARD PLATE).
Regarding `CC1=Cc2nc3c(ccc4ccccc43)c(C)c2[C@H](O)[C@H]1O`, the mutagenic call (Test System: AMES SALMONELLA TYPHIMURIUM, Strain/Indicator: TA100, Metabolic Activation: RAT, LIVER, S-9, AROCLOR 1254, Method: STANDARD PLATE) is “active; positive”.
In the case of `Cn1c(N)nc2cc(C#N)ccc21`, the mutagenic call (Test System: AMES SALMONELLA TYPHIMURIUM, Strain/Indicator: TA98, Metabolic Activation: RAT, LIVER, S-9, AROCLOR 1254, Method: PREINCUBATION) was “active; positive” and the mutagenic call (Test System: AMES SALMONELLA TYPHIMURIUM, Strain/Indicator: TA100, Metabolic Activation: RAT, LIVER, S-9, AROCLOR 1254, Method: PREINCUBATION) was “inactive; negative”.

The values above are taken from PubChem BioAssay AID1259407 (Chemical Carcinogenesis Research Information System (CCRIS), 2018).
